Results published in ChEMBL document CHEMBL1201862, “PubChem BioAssay data set” (2004).
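The compound was tested at five concentrations on cells cultured in 96-well plates, with a 48-hour exposure period. At the GI50, growth is halved.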 Activity calls are given as the source filed them. Cut-off read from the data, not from the text of the source: active = GI50 up to about 1.1 µM and inactive = higher.

Columns and labels:
Assay in all cases: NCI-60 cell line screen, 48 h
NCI-H522 = test system: NCI-H522
OVCAR-4 = test system: OVCAR-4
SF-268 = test system: SF-268
SNB-75 = test system: SNB-75
M14 = test system: M14
A498 = test system: A498
HOP-62 = test system: HOP-62
Malme-3M = test system: Malme-3M
TK-10 = test system: TK-10
MOLT-4 = test system: MOLT-4
HT-29 = test system: HT-29
SK-MEL-28 = test system: SK-MEL-28
IGROV-1 = test system: IGROV-1
786-0 = test system: 786-0
UACC-257 = test system: UACC-257
SNB-78 = test system: SNB-78
ACHN = test system: ACHN
NCI-H460 = test system: NCI-H460
SN12C = test system: SN12C
SK-OV-3 = test system: SK-OV-3
M19-MEL = test system: M19-MEL
HCC 2998 = test system: HCC 2998
SF-295 = test system: SF-295
HL-60 = test system: HL-60
UACC-62 = test system: UACC-62
LOX IMVI = test system: LOX IMVI
RXF 393 = test system: RXF 393
SK-MEL-2 = test system: SK-MEL-2
DMS-273 = test system: DMS-273
EKVX = test system: EKVX
NCI-H23 = test system: NCI-H23
A549 = test system: A549
KM-20L2 = test system: KM-20L2
COLO 205 = test system: COLO 205
KM12 = test system: KM12
U-251 = test system: U-251
LXFL 529 = test system: LXFL 529
HCT-116 = test system: HCT-116
UO-31 = test system: UO-31
CCRF-CEM = test system: CCRF-CEM
CAKI-1 = test system: CAKI-1
SNB-19 = test system: SNB-19
HOP-92 = test system: HOP-92
HCT-15 = test system: HCT-15
SW-620 = test system: SW-620
SF-539 = test system: SF-539
RPMI-8226 = test system: RPMI-8226
OVCAR-3 = test system: OVCAR-3
OVCAR-8 = test system: OVCAR-8
SK-MEL-5 = test system: SK-MEL-5
DU-145 = test system: DU-145
OVCAR-5 = test system: OVCAR-5
SR = test system: SR
MDA-MB-435 = test system: MDA-MB-435
MDA-MB-231 = test system: MDA-MB-231
K562 = test system: K562
BT-549 = test system: BT-549
PC-3 = test system: PC-3
MDA-N = test system: MDA-N
Hs-578T = test system: Hs-578T
T47D = test system: T47D
NCI-H226 = test system: NCI-H226
NCI/ADR-RES = test system: NCI/ADR-RES
MCF7 = test system: MCF7
DMS-114 = test system: DMS-114
HOP-18 = test system: HOP-18
DLD-1 = test system: DLD-1

For `CCCCCCCC(=O)OCC1OC(n2cc(F)c(=O)[nH]c2=O)C(N)C(OC(=O)CCCCCCC)C1O` (configuration not stated), the GI50 (NCI-H522) was 14.5 µM (inactive), the GI50 (OVCAR-4) was 15.2 µM (inactive) and the GI50 (SF-268) was 18.5 µM (inactive). The GI50 (SNB-75) was 15 µM (inactive), the GI50 (M14) was 17.9 µM (inactive) and the GI50 (A498) was 20.3 µM (inactive). The GI50 (HOP-62) was 18.6 µM (inactive), the GI50 (Malme-3M) was 17.5 µM (inactive) and the GI50 (TK-10) was 23.4 µM (inactive). The GI50 (MOLT-4) was 15.5 µM (inactive), the GI50 (HT-29) was 19.3 µM (inactive) and the GI50 (SK-MEL-28) was 17.3 µM (inactive). The GI50 (IGROV-1) was 20.3 µM (inactive), the GI50 (786-0) was 19.4 µM (inactive) and the GI50 (UACC-257) was 17.8 µM (inactive). For the same molecule, the GI50 (SNB-78) was 20 µM (inactive), the GI50 (ACHN) was 20.2 µM (inactive) and the GI50 (NCI-H460) was 19.4 µM (inactive). For the same molecule, the GI50 (SN12C) was 17.5 µM (inactive), the GI50 (SK-OV-3) was 28.8 µM (inactive) and the GI50 (M19-MEL) was 20.2 µM (inactive). The GI50 (HCC 2998) was 16.5 µM (inactive), the GI50 (SF-295) was 17.5 µM (inactive) and the GI50 (HL-60) was 20.2 µM (inactive). For the same molecule, the GI50 (UACC-62) was 17.8 µM (inactive), the GI50 (LOX IMVI) was 18.5 µM (inactive) and the GI50 (RXF 393) was 18 µM (inactive). The GI50 (SK-MEL-2) was 18.8 µM (inactive), the GI50 (DMS-273) was 16.6 µM (inactive) and the GI50 (EKVX) was 19.1 µM (inactive). The GI50 (NCI-H23) was 20.1 µM (inactive), the GI50 (A549) was 18.3 µM (inactive) and the GI50 (KM-20L2) was 18.9 µM (inactive). For the same molecule, the GI50 (COLO 205) was 18.5 µM (inactive), the GI50 (KM12) was 21.2 µM (inactive) and the GI50 (U-251) was 19.5 µM (inactive). The GI50 (LXFL 529) was 17.1 µM (inactive), the GI50 (HCT-116) was 19.5 µM (inactive) and the GI50 (UO-31) was 19.5 µM (inactive). The GI50 (CCRF-CEM) was 17.6 µM (inactive), the GI50 (CAKI-1) was 16.8 µM (inactive) and the GI50 (SNB-19) was 17.5 µM (inactive). For the same molecule, the GI50 (HOP-92) was 18.4 µM (inactive), the GI50 (HCT-15) was 18.5 µM and the GI50 (SW-620) was 18.4 µM (inactive). For the same molecule, the GI50 (SF-539) was 20.5 µM (inactive), the GI50 (RPMI-8226) was 23.2 µM (inactive) and the GI50 (OVCAR-3) was 20.8 µM (inactive). The GI50 (OVCAR-8) was 17.8 µM (inactive) and the GI50 (SK-MEL-5) was 10.5 µM (inactive).

In the case of `COc1ccc2c(c1)[nH]c1c(/C=C/c3ccccc3)nccc12`, the GI50 (NCI-H522) is reported as 12.4 µM (inactive), the GI50 (DU-145) is reported as 20.5 µM (inactive) and the GI50 (OVCAR-4) is reported as 19.6 µM (inactive). The GI50 (SF-268) was 17.7 µM (inactive), the GI50 (SNB-75) was 12.3 µM (inactive) and the GI50 (M14) was 15.9 µM (inactive). The GI50 (A498) was 12.3 µM (inactive), the GI50 (OVCAR-5) was 14.9 µM (inactive) and the GI50 (HOP-62) was 15.7 µM (inactive). For the same molecule, the GI50 (Malme-3M) was 15.9 µM (inactive), the GI50 (TK-10) was 19.4 µM (inactive) and the GI50 (MOLT-4) was 7.55 µM (inactive). The GI50 (HT-29) was 10 µM (inactive), the GI50 (SR) was 3.47 µM (inactive) and the GI50 (MDA-MB-435) was 16.2 µM (inactive). The GI50 (MDA-MB-231) was 17.5 µM (inactive), the GI50 (SK-MEL-28) was 14.9 µM (inactive) and the GI50 (IGROV-1) was 14.7 µM (inactive). For the same molecule, the GI50 (786-0) was 15.1 µM (inactive), the GI50 (UACC-257) was 16.1 µM (inactive) and the GI50 (ACHN) was 12.2 µM (inactive). For the same molecule, the GI50 (NCI-H460) was 13.2 µM (inactive), the GI50 (SN12C) was 14.2 µM (inactive) and the GI50 (SK-OV-3) was 13.8 µM (inactive). For the same molecule, the GI50 (HCC 2998) was 13 µM (inactive), the GI50 (SF-295) was 8.81 µM (inactive) and the GI50 (K562) was 15.9 µM (inactive). For the same molecule, the GI50 (HL-60) was 19.1 µM (inactive), the GI50 (UACC-62) was 14.5 µM (inactive) and the GI50 (LOX IMVI) was 18.7 µM (inactive). For the same molecule, the GI50 (BT-549) was 12.8 µM (inactive), the GI50 (RXF 393) was 14.8 µM (inactive) and the GI50 (SK-MEL-2) was 16.2 µM (inactive). For the same molecule, the GI50 (PC-3) was 16.1 µM (inactive), the GI50 (EKVX) was 12.6 µM (inactive) and the GI50 (NCI-H23) was 15.3 µM (inactive). For the same molecule, the GI50 (A549) was 14.9 µM (inactive), the GI50 (COLO 205) was 3.83 µM (inactive) and the GI50 (KM12) was 14.1 µM (inactive). The GI50 (U-251) was 14.1 µM (inactive), the GI50 (MDA-N) was 16.2 µM (inactive) and the GI50 (Hs-578T) was 19 µM (inactive). The GI50 (HCT-116) was 12.1 µM (inactive), the GI50 (T47D) was 23.5 µM (inactive) and the GI50 (UO-31) was 10.4 µM (inactive). For the same molecule, the GI50 (NCI-H226) was 17.4 µM (inactive), the GI50 (CCRF-CEM) was 17 µM (inactive) and the GI50 (CAKI-1) was 14.5 µM (inactive). For the same molecule, the GI50 (SNB-19) was 16 µM (inactive), the GI50 (HOP-92) was 18.6 µM (inactive) and the GI50 (HCT-15) was 11.5 µM. The GI50 (SW-620) was 15.9 µM (inactive), the GI50 (SF-539) was 13 µM (inactive) and the GI50 (RPMI-8226) was 13.3 µM (inactive). The GI50 (OVCAR-3) was 13.6 µM (inactive), the GI50 (OVCAR-8) was 14.2 µM (inactive) and the GI50 (NCI/ADR-RES) was 11 µM (inactive). For the same molecule, the GI50 (MCF7) was 16 µM (inactive) and the GI50 (SK-MEL-5) was 14.8 µM (inactive).

With `O=[N+]([O-])c1cccc(C2=NOC3CCCC23)c1` (configuration not stated) the GI50 (NCI-H522) was > 100 µM (inactive), the GI50 (OVCAR-4) was > 100 µM (inactive) and the GI50 (SF-268) was > 100 µM (inactive). The GI50 (SNB-75) was > 100 µM (inactive), the GI50 (M14) was > 100 µM (inactive) and the GI50 (A498) was > 100 µM (inactive). The GI50 (OVCAR-5) was > 100 µM (inactive), the GI50 (HOP-62) was > 100 µM (inactive) and the GI50 (Malme-3M) was > 100 µM (inactive). For the same molecule, the GI50 (DMS-114) was > 100 µM (inactive), the GI50 (TK-10) was > 100 µM (inactive) and the GI50 (MOLT-4) was > 100 µM (inactive). For the same molecule, the GI50 (HT-29) was > 100 µM (inactive), the GI50 (SK-MEL-28) was > 100 µM (inactive) and the GI50 (IGROV-1) was > 100 µM (inactive). The GI50 (786-0) was > 100 µM (inactive), the GI50 (UACC-257) was > 100 µM (inactive) and the GI50 (HOP-18) was > 100 µM (inactive). For the same molecule, the GI50 (SNB-78) was > 100 µM (inactive), the GI50 (ACHN) was > 100 µM (inactive) and the GI50 (NCI-H460) was > 100 µM (inactive). For the same molecule, the GI50 (SN12C) was > 100 µM (inactive), the GI50 (SK-OV-3) was > 100 µM (inactive) and the GI50 (M19-MEL) was > 100 µM (inactive). For the same molecule, the GI50 (HCC 2998) was > 100 µM (inactive), the GI50 (SF-295) was > 100 µM (inactive) and the GI50 (K562) was > 100 µM (inactive). For the same molecule, the GI50 (HL-60) was > 100 µM (inactive), the GI50 (UACC-62) was > 100 µM (inactive) and the GI50 (SK-MEL-2) was > 100 µM (inactive). The GI50 (DMS-273) was > 100 µM (inactive), the GI50 (EKVX) was > 100 µM (inactive) and the GI50 (NCI-H23) was > 100 µM (inactive). The GI50 (A549) was > 100 µM (inactive), the GI50 (COLO 205) was > 100 µM (inactive) and the GI50 (KM12) was > 100 µM (inactive). The GI50 (U-251) was > 100 µM (inactive), the GI50 (LXFL 529) was > 100 µM (inactive) and the GI50 (HCT-116) was > 100 µM (inactive). The GI50 (UO-31) was > 100 µM (inactive), the GI50 (DLD-1) was > 100 µM (inactive) and the GI50 (NCI-H226) was > 100 µM (inactive). For the same molecule, the GI50 (CCRF-CEM) was > 100 µM (inactive), the GI50 (CAKI-1) was < 0.01 µM (active) and the GI50 (SNB-19) was 25.2 µM (inactive). For the same molecule, the GI50 (HOP-92) was > 100 µM (inactive), the GI50 (HCT-15) was greater than 100 µM and the GI50 (SW-620) was > 100 µM (inactive). For the same molecule, the GI50 (SF-539) was > 100 µM (inactive), the GI50 (RPMI-8226) was > 100 µM (inactive) and the GI50 (OVCAR-3) was > 100 µM (inactive). For the same molecule, the GI50 (OVCAR-8) was > 100 µM (inactive) and the GI50 (SK-MEL-5) was > 100 µM (inactive).
